Source: patent US8309546B2, “Morpholinopurine derivatives” (Daiichi Sankyo Company, Limited, priority 2008, dated 2012)

Key:
[1] = molecular target: T1, human mTOR (His-tagged mTOR (1362C)) (Homo sapiens, UniProt P42345); experiment: mTOR kinase activity inhibition assay; assay type: biochemical; details: HTRF, read-out: IC50 against mTOR
T1 construct: the 1362 to 2549 amino acid portion on the C terminus side of human mTOR; His tag (N); made in house
Outline: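 Crude His-tagged mTOR (aa 1362–2549) from stable HEK293 cells, with 8 μg/ml biotinylated peptide in 50 mM HEPES pH 7.5, 20 mM MnCl2; compound diluted in 20 μM ATP solution, reaction 3 h at room temperature. Phospho-peptide detected by HTRF (anti-phospho-S6K Thr389 cryptate/streptavidin-XL665, overnight at 4°C), 665/620 nm ratio. IC50 derived from curve fit of % inhibition.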

[2] = tested on: human ovary cancer cell strain IGROV1; experiment: Cell growth inhibition test (MTT), IGROV1; assay type: cell-based; details: IGROV-1, 72 h, IGROV1, 3 days culture, read-out: concentration exhibiting anti-cell effect (GI50)
Outline: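 MTT read-out at 540 nm after 4 h formazan formation gives living cell count following 3-day compound exposure at 37° C, 5% CO2. Seeding: 5000 AN3CA, 1000 IGROV1, 5000 HT29 cells/well. Growth rate T/C % = 100×[(B−C)/(A−C)], with C taken before dosing; GI50 = concentration giving 50% growth.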

[3] = tested on: human endometrial cancer cell strain AN3CA tumor; experiment: Anti-tumor effect assay using mouse subcutaneous transplantation model; assay type: in vivo, female nude mouse; details: AN3-CA, oral, tumor weight vs negative control, read-out: Anti-tumor effect (tumor growth inhibition rate); for inhibition in vivo at 1.875 mg/kg/day / inhibition in vivo at 7.5 mg/kg/day: 120 h, 5 consecutive days
Experimental: A tumor section was prepared from a human endometrial cancer cell strain AN3CA tumor mass formed in a female nude mouse as a subcutaneously transplanted tumor and then a xenograft model was prepared by transplanting the tumor section into female nude mouse. Tumor-bearing mice having an estimated tumor volume (long diameter×short diameter×short diameter/2) of 80 to 200 mm^3 were divided, so that there should be no significant difference in the mean estimated tumor volume and body weight as compared with the negative control group to perform a test. The test compound was orally administered at a predetermined dose for 8 consecutive days. On the following day of the final administration day, tumor-bearing mice were anesthetized and exsanguinated to death and a tumor mass was isolated to measure tumor weight (the compounds of Examples 1, 3, 6, 8, 11, 12, and 14). Furthermore, as a similar test, the test compound was orally administered for 5 consecutive days, animals were sacrificed on the final administration day, and tumor weight was measured (the compounds of Examples 60, 63, 75, 77, 79, 89, 92, 107, 108, 109, 110, and 127).
In all the tests, anti-tumor effect was calculated by the following formula. {1−(tumor weight in compound treatment group/tumor weight in negative control group)}×100

[4] = 8 or 5 consecutive days depending on compound

T1 sequence (P42345 1362-2549): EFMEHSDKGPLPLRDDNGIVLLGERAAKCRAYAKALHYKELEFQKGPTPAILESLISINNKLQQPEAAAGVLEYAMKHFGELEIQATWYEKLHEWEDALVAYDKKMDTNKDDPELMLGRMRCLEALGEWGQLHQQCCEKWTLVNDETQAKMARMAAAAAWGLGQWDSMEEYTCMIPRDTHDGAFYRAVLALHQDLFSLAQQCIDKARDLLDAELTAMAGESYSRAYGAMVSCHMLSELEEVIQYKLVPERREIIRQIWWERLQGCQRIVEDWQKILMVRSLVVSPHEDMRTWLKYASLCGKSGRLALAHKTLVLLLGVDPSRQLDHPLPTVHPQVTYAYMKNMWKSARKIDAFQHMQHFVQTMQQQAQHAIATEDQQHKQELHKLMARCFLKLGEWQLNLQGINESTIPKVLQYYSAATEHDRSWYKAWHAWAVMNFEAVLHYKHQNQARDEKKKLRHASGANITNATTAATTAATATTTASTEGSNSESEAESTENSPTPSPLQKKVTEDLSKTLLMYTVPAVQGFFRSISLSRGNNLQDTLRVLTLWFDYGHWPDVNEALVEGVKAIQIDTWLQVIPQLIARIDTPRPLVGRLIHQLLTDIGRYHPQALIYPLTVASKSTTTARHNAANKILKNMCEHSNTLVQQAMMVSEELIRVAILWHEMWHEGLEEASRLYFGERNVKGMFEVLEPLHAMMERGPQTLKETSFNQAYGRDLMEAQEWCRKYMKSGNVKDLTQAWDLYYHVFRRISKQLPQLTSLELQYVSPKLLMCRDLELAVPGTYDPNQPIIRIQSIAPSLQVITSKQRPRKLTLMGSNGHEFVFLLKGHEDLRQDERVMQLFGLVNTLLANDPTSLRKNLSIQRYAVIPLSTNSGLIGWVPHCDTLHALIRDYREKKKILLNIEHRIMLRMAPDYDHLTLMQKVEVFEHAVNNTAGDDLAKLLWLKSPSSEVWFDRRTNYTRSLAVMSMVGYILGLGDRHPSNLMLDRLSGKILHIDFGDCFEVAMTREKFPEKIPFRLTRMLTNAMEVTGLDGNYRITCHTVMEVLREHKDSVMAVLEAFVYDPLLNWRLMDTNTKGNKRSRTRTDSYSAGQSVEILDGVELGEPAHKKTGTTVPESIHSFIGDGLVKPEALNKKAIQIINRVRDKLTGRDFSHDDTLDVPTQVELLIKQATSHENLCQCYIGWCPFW

For CC[C@H]1CN(c2nc3c(N4CCOCC4)nc(-c4cnc(N)nc4)nc3n2CC(F)(F)F)CCN1C(C)=O [Example 75, 5-{8-[(3S)-4-Acetyl-3-ethylpiperazin-1-yl]-6-morpholin-4-yl-9-(2,2,2-trifluoroethyl)-9H-purin-2-yl}pyrimidin-2-amine], the IC50 [1] was < 10 nM, the GI50 [2] was ≤ 5000 nM and the inhibition in vivo at 1.875 mg/kg/day [3] was 44%. For the same compound, the inhibition in vivo at 7.5 mg/kg/day [3] was 77%.

With C[C@H]1COCCN1c1nc(-c2cnc(N)nc2)nc2c1nc(N1CCN(S(C)(=O)=O)CC1)n2CC(F)(F)F [Example 127, 5-{6-[(3S)-3-Methylmorpholin-4-yl]-8-[4-(methylsulfonyl)piperazin-1-yl]-9-(2,2,2-trifluoroethyl)-9H-purin-2-yl}pyrimidin-2-amine] the IC50 [1] was < 10 nM, the GI50 [2] was ≤ 5000 nM and the inhibition in vivo at 5 mg/kg/day [3, 4] was 69%. The inhibition in vivo at 10 mg/kg/day [3, 4] was 79%.

C[C@H](O)C(=O)N1CCN(c2nc3c(N4CCOCC4)nc(-c4cnc(N)nc4)nc3n2CC(F)(F)F)C[C@@H]1C [Example 109, (2S)-1-{(2S)-4-[2-(2-Aminopyrimidin-5-yl)-6-morpholin-4-yl-9-(2,2,2-trifluoroethyl)-9H-purin-8-yl]-2-methylpiperazin-1-yl}-1-oxopropan-2-ol] was tested, and the IC50 [1] was < 10 nM, the GI50 [2] was ≤ 5000 nM and the inhibition in vivo at 1.875 mg/kg/day [3] was 42%. For the same compound, the inhibition in vivo at 7.5 mg/kg/day [3] was 80%.

In the case of CS(=O)(=O)N1CCN(c2nc3c(N4CCOCC4)nc(-c4cnc(N)nc4)nc3n2CC(F)(F)F)CC1 [Example 8, 5-{8-[4-(Methylsulfonyl)piperazin-1-yl]-6-morpholin-4-yl-9-(2,2,2-trifluoroethyl)-9H-purin-2-yl}pyrimidin-2-amine], the IC50 [1] is reported as < 10 nM, the GI50 [2] is reported as ≤ 5000 nM and the inhibition in vivo at 2.5 mg/kg/day ([3]; 2.5 mg/kg/day, 8 or 5 consecutive days depending on compound) is reported as 72%. It also gave an inhibition in vivo at 5 mg/kg/day [3, 4] of 93%.

For C[C@H](O)C(=O)N1CCN(c2nc3c(N4CCOCC4)nc(-c4cnc(N)nc4)nc3n2CC2CC2)C[C@H]1C [Example 95, (2S)-1-{(2R)-4-[2-(2-Aminopyrimidin-5-yl)-9-(cyclopropylmethyl)-6-morpholin-4-yl-9H-purin-8-yl]-2-methylpiperazin-1-yl}-1-oxopropan-2-ol], the IC50 [1] was 10 to 30 nM, the GI50 [2] was ≤ 5000 nM and the inhibition in vivo at 5 mg/kg/day [3, 4] was 44%. It also gave an inhibition in vivo at 10 mg/kg/day [3, 4] of 62%.

Cc1nc(N)ncc1-c1nc(N2CCOCC2)c2nc(N3CCN(S(C)(=O)=O)CC3)n(CC3CC3)c2n1 [Example 6, 5-{9-(Cyclopropylmethyl)-8-[4-(methylsulfonyl)piperazin-1-yl]-6-morpholin-4-yl-9H-purin-2-yl}-4-methylpyrimidin-2-amine] was tested, and the IC50 [1] was 100 to 500 nM, the GI50 [2] was ≤ 5000 nM and the inhibition in vivo at 5 mg/kg/day [3, 4] was 66%. The inhibition in vivo at 10 mg/kg/day [3, 4] was 69%.

For CCC(=O)N1CCN(c2nc3c(N4CCOCC4)nc(-c4cnc(N)nc4)nc3n2CC(F)(F)F)CC1 [Example 117, 5-[6-Morpholin-4-yl-8-(4-propionylpiperazin-1-yl)-9-(2,2,2-trifluoroethyl)-9H-purin-2-yl]pyrimidin-2-amine], the IC50 [1] was < 10 nM and the GI50 [2] was ≤ 5000 nM.

For CNc1ncc(-c2nc(N3CCOCC3)c3nc(N4CCN(C(C)=O)CC4)n(CC(F)(F)F)c3n2)cn1 [Example 134, 5-[8-(4-Acetylpiperazin-1-yl)-6-morpholin-4-yl-9-(2,2,2-trifluoroethyl)-9H-purin-2-yl]-N-methylpyrimidin-2-amine], the IC50 [1] was < 10 nM and the GI50 [2] was ≤ 5000 nM.

For C[C@@H]1CN(c2nc3c(N4CCOCC4)nc(-c4cnc(N)nc4)nc3n2CC(F)(F)F)CCN1S(C)(=O)=O [Example 61, 5-{8-[(3R)-3-Methyl-4-(methylsulfonyl)piperazin-1-yl]-6-morpholin-4-yl-9-(2,2,2-trifluoroethyl)-9H-purin-2-yl}pyrimidin-2-amine], the IC50 [1] was 10 to 30 nM and the GI50 [2] was ≤ 5000 nM.

In the case of C[C@@H](O)C(=O)N1CCN(c2nc3c(N4CCOCC4)nc(-c4cnc(N)nc4)nc3n2CC2CC2)C[C@@H]1C [Example 113, (2R)-1-{(2S)-4-[2-(2-Aminopyrimidin-5-yl)-9-(cyclopropylmethyl)-6-morpholin-4-yl-9H-purin-8-yl]-2-methylpiperazin-1-yl}-1-oxopropan-2-ol], the IC50 [1] is reported as < 10 nM and the GI50 [2] is reported as ≤ 5000 nM.

With CC(=O)N1CCN(c2nc3c(N4CCOC[C@@H]4C)nc(-c4cnc(N)nc4)nc3n2CC(C)C)CC1 [Example 129, 5-{8-(4-Acetylpiperazin-1-yl)-9-isobutyl-6-[(3S)-3-methylmorpholin-4-yl]-9H-purin-2-yl}pyrimidin-2-amine] the IC50 [1] was 10 to 30 nM and the GI50 [2] was ≤ 5000 nM.

With Nc1ncc(-c2nc(N3CCOCC3)c3nc(N4CCN(C(=O)CO)CC4)n(CC(F)(F)F)c3n2)cn1 [Example 67, 2-{4-[2-(2-Aminopyrimidin-5-yl)-6-morpholin-4-yl-9-(2,2,2-trifluoroethyl)-9H-purin-8-yl]piperazin-1-yl}-2-oxoethanol] the IC50 [1] was < 10 nM and the GI50 [2] was ≤ 5000 nM.

In the case of CC(C)Cn1c(N2CCN(C=O)CC2)nc2c(N3CCOC[C@@H]3C)nc(-c3cnc(N)nc3)nc21 [Example 132, 4-{2-(2-Aminopyrimidin-5-yl)-9-isobutyl-6-[(3S)-3-methylmorpholin-4-yl]-9H-purin-8-yl}piperazine-1-carboaldehyde], the IC50 [1] is reported as 10 to 30 nM and the GI50 [2] is reported as ≤ 5000 nM.

With CS(=O)(=O)N1CCN(c2nc3c(N4CCOCC4)nc(-c4cnc(N)nc4)nc3n2CC(F)F)CC1 [Example 64, 5-{9-(2,2-Difluoro-ethyl)-8-[4-(methylsulfonyl)piperazin-1-yl]-6-morpholin-4-yl-9H-purin-2-yl}pyrimidin-2-amine] the IC50 [1] was < 10 nM and the GI50 [2] was ≤ 5000 nM.

For CNc1ncc(-c2nc(N3CCOCC3)c3nc(N4CCN(S(C)(=O)=O)[C@@H](C)C4)n(CC(F)(F)F)c3n2)cn1 [Example 105, N-Methyl-5-{8-[(3S)-3-methyl-4-(methylsulfonyl)piperazin-1-yl]-6-morpholin-4-yl-9-(2,2,2-trifluoroethyl)-9H-purin-2-yl}pyrimidin-2-amine], the IC50 [1] was < 10 nM and the GI50 [2] was ≤ 5000 nM.

For CC(=O)N1CCN(c2nc3c(N4CCOCC4)nc(-c4cnc(N)nc4)nc3n2CC2CC2)C[C@@H]1C [Example 96, 5-{8-[(3S)-4-Acetyl-3-methylpiperazin-1-yl]-9-(cyclopropylmethyl)-6-morpholin-4-yl-9H-purin-2-yl}pyrimidin-2-amine], the IC50 [1] was < 10 nM and the GI50 [2] was ≤ 5000 nM.

With CC(C)Cn1c(N2CCN(C(=O)C[C@@H](C)O)[C@@H](C)C2)nc2c(N3CCOCC3)nc(-c3cnc(N)nc3)nc21 [Example 83, (2R)-4-{(2S)-4-[2-(2-Aminopyrimidin-5-yl)-9-isobutyl-6-morpholin-4-yl-9H-purin-8-yl]-2-methylpiperazin-1-yl}-4-oxobutan-2-ol] the IC50 [1] was < 10 nM and the GI50 [2] was ≤ 5000 nM.

For CC(=O)N1CCN(c2nc3c(N4CCOCC4)nc(-c4cnc(N)nc4)nc3n2CC2CC2)C[C@H]1C [Example 97, 5-{8-[(3R)-4-Acetyl-3-methylpiperazin-1-yl]-9-(cyclopropylmethyl)-6-morpholin-4-yl-9H-purin-2-yl}pyrimidin-2-amine], the IC50 [1] was 10 to 30 nM and the GI50 [2] was ≤ 5000 nM.

With CN(C)C(=O)C(=O)N1CCN(c2nc3c(N4CCOCC4)nc(-c4cnc(N)nc4)nc3n2CC(F)(F)F)CC1 [Example 66, 2-{4-[2-(2-Aminopyrimidin-5-yl)-6-morpholin-4-yl-9-(2,2,2-trifluoroethyl)-9H-purin-8-yl]piperazin-1-yl}-N,N-dimethyl-2-oxoacetamide] the IC50 [1] was < 10 nM and the GI50 [2] was ≤ 5000 nM.

With CC(=O)N1CCN(c2nc3c(N4CCOCC4)nc(-c4cnc(N)nc4)nc3n2CC(C)C)C[C@H]1C [Example 99, 5-{8-[(3R)-4-Acetyl-3-methylpiperazin-1-yl]-9-isobutyl-6-morpholin-4-yl-9H-purin-2-yl}pyrimidin-2-amine] the IC50 [1] was 10 to 30 nM and the GI50 [2] was ≤ 5000 nM.

With C[C@@H]1CN(c2nc3c(N4CCOCC4)nc(-c4cnc(N)nc4)nc3n2CC(F)(F)F)C[C@H](C)N1C=O [Example 116, 4-[2-(2-Aminopyrimidin-5-yl)-6-morpholin-4-yl-9-(2,2,2-trifluoroethyl)-9H-purin-8-yl]-cis-2,6-dimethylpiperazine-1-carboaldehyde] the IC50 [1] was < 10 nM and the GI50 [2] was ≤ 5000 nM.
